Biological target: T1, HUG (HELP-UnaG) (Anguilla japonica, UniProt P0DM59)
T1 construct: entire UnaG (139 aa) fused to the C-terminus of the synthetic human elastin-like polypeptide HELP (536 aa, VAPGVG hexapeptide repeats); fusion of 675 aa, 60,406 Da; expressed in E. coli, purified by inverse phase transition
Experiment: fluorescence titration (ex […] nm, em […] nm), nonlinear fit of […] binding model

T1 sequence (P0DM59 whole entry, the tested form may be a part): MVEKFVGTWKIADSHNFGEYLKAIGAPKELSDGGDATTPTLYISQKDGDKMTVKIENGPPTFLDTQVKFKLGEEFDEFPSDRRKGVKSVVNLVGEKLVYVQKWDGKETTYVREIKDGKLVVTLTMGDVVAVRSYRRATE

Q: With `C=CC1=C(C)/C(=C/c2[nH]c(Cc3[nH]c(/C=C4\NC(=O)C(C)=C4C=C)c(C)c3CCC(=O)O)c(CCC(=O)O)c2C)NC1=O` [bilirubin] as the compound, how does the Kd read?
A: 1.1 nM

From paper PMC9364316, “Macromolecular and Solution Properties of the Recombinant Fusion Protein HUG” (Biomacromolecules, 2022)
